Data as given in patent publication US6649793B1, “Process for the preparation of a N,N-diamino amino acid-β-hydroxy disuccinic acid” (Board of Trustees of Michigan State University, priority 2002, dated 2003).

Assay: Potentiometric calcium titration with calcium-selective electrode (calcium binding / chelation)
Type: physicochemical
Settings: Ca2+ binding; 50 mL of 200 ppm hardness solution at 25° C.; NH4Cl/NH4OH buffer pH=9.5, ionic strength 0.1M
Method: Calcium chloride dihydrate was purchased from Fisher Scientific. A stock solution of 0.01M […] (1000 ppm, hardness CaCO3) was prepared with distilled deionized water, and 0.03M NH4Cl/0.07M NH4OH buffer (pH=9.5, ionic strength of 0.1M). The later chemicals were obtained from Columbus Chemical Industries, Inc. Standard solution ranging from 200 ppm to 10 ppm was prepared by dilution of the stock solution with the buffer. A plot of the logarithm of calcium ion concentration vs the normalized potential was constructed prior to each titration (Rechnitz, G. A., et al., Anal. Chem. 40 696 (1968); and Nagarajan, M. K., et al., JAOCS 61 1475 (1984)). This was necessary to minimize the effect of signal fluctuations due to solution condition (ionic strength, pH, and the like). […]
The electrode was immersed in a 50 mL of 200 ppm hardness solution at 25° C., and the meter reading was taken while the solution was being stirred by magnet (Blay, J. A., et al., Anal. Lett. 4, 653 (1971)). The calcium binding solution of Compound II was added in small increments and the equilibrium-free calcium ion concentration were measured. When the meter reading indicated less than 10 ppm present in solution, the titration was stopped. […] Chelation constant (logK) of compound II was determined to be 4.23±0.09 according to the following equation [formula] […]

SMILES: O=C(O)C(O)C(NCCCC[C@H](NC(C(=O)O)C(O)C(=O)O)C(=O)O)C(=O)O (stereo partly drawn) [compound II, 2N,6N-lysine-β-hydroxy disuccinic acid]
- Chelation constant (logK): 4.23±0.09
